Results taken from patent publication US20090053695A1, “Gene Marker and Use Thereof” (priority 2004, published 2009).

Tested on: gene markers (Tap1 or Ctss)
Test: Temporal changes in blood expression levels of Tap1 and Ctss after heart transplantation (Example 5, FIG. 4)
Format: in vivo, rat
Settings: s.c. daily dosing as in Example 2; blood mRNA to post-transplantation day 4, relative to pre-transplantation level (as 1)
Description: To precisely examine changes in the expression level of each of the genes selected here, their mRNAs were quantified. For Irf1, Psmb9, Nos2, and Pim1, the mRNA was quantified by using 25 ng of extracted mRNA together with each primer and probe shown in Table 1, synthesizing cDNA with TaqMan Reverse Transcription Reagents (manufactured by Applied Biosystems) under the conditions shown in Table 1, on an ABI PRISM 7900HT Detection System (manufactured by Applied Biosystems), and using β-actin as an internal control. For Tap1 and Ctss, mRNA was quantified by using 25 ng of extracted mRNA together with each primer and probe (final concentrations: […] each primer, 250 nM TaqMan probe; TaqMan Gene Expression Assays Rn00709612_ml (Tap1) or Rn00569036_ml (Ctss), Applied Biosystems), synthesizing cDNA with TaqMan Reverse Transcription Reagents (manufactured by Applied Biosystems) on an ABI PRISM 7900HT Detection System (manufactured by Applied Biosystems), and using β-actin as an internal control. […]

C=CC[C@@H]1/C=C(\C)C[C@H](C)C[C@H](OC)[C@H]2O[C@@](O)(C(=O)C(=O)N3CCCC[C@H]3C(=O)O[C@H](/C(C)=C/[C@@H]3CC[C@@H](O)[C@H](OC)C3)[C@H](C)[C@@H](O)CC1=O)[C@H](C)C[C@@H]2OC [tacrolimus]
expression levels of the gene markers Tap1 and Ctss compared with the rejection group: suppressed compared with the rejection group, to the level similar to or lower than that of the non-rejection group
